Experimental data: patent US9883997B2, “Cosmetic compositions with tricyclodecane amides” (Conopco, Inc., priority 2013, dated 2018)
Read-outs that look alike come from different tables or passages of the source. One block for each molecule: values may come before it.

Assays:
[1] = cited from earlier work
[2] = Precursor cosmetic compositions evaluated for crystals content, i.e. solubility of solid agent in the liquid agent (Example 29); type: physicochemical
Method: The following precursor cosmetic compositions were prepared and evaluated for crystals content, i.e. solubility of solid agent in the liquid agent.
The composition is heated to a temperature above the melting point of the highest melting compound, then allowed to cool to room temperature. […] In the case of end use cosmetic compositions visualization of the crystals of solid agent was done by comparing a sample with and without tricyclodecane amide and observing the formation of crystals, if any, under the optical microscope fitted with cross-polarizers at a magnification of 10× or higher.

[3] = liquid cosmetic agents, Table 2
[4] = 12HSA (16.6%) in OMC (50%), [S]/[L] 0.3, amide or comparator (33%), 24 hours
[5] = 2-HEU (16.6%) in OMC (50%), [S]/[L] 0.3, amide (33.3%), 24 hours
[6] = Cholesterol (16.6%) in OMC (50%), [S]/[L] 0.3, amide or comparator (33.3%), 24 hours
[7] = Cholesterol (18%) in retinol proprionate (50%), [S]/[L] 0.4, amide or comparator (32%), observation at 12 hours
[8] = Climbazole (28.5%) in OMC (42.8%), [S]/[L] 0.7, amide (28.5%), 24 hours
[9] = Climbazole (28.5%) in Pelemol GTIS (42.8%), [S]/[L] 0.7, amide (28.5%), 24 hours
[10] = Niacinamide (9.1%) in PPG425 (54.5%), [S]/[L] 0.2, amide (36.4%), observation at 12 hours
[11] = Niacinamide (10%) in Glucam P-20 (55%), [S]/[L] 0.2, amide (35%), 24 hours
[12] = retinyl palmitate (28.5%) in OMC (42.8%), [S]/[L] 0.7, amide or comparator (28.5%), 24 hours

Molecule: Conjugated linoleic acid
Log Po/w [1, 3]: >6

Molecule: CC1CCCN(C(=O)C23CC4CC(CC(C4)C2)C3)C1 (stereo not shown) [Compound C14, Methanone, (3-methyl-1-piperidinyl)tricyclo[3.3.1.1^3,7]dec-1-yl-]
Appearance after cooling - observation at 24 hours, except as noted [2, 5]: clear liquid
Appearance after cooling - observation at 24 hours, except as noted ([2]; 2-HEU (42%) in OMC (33%), [S]/[L] 1.3, amide (25%), 24 hours): crystal + liquid
Appearance after cooling - observation at 24 hours, except as noted [2, 4]: translucent gel
Appearance after cooling - observation at 24 hours, except as noted ([2]; 12HSA (16.6%) in Pelemol TISC (50%), [S]/[L] 0.3, amide (33%), 24 hours): translucent gel
Appearance after cooling - observation at 24 hours, except as noted ([2]; Avobenzone (28.5%) in Propylene glycol (42.8%), [S]/[L] 0.7, amide (28.5%), 24 hours): Crystal + liquid
Appearance after cooling - observation at 24 hours, except as noted ([2]; Cholesterol (10%) in conjugated linoleic acid (45%), [S]/[L] 0.2, amide (45%), 24 hours): clear liquid
Appearance after cooling - observation at 24 hours, except as noted [2, 6]: Clear liquid
Appearance after cooling - observation at 24 hours, except as noted [2, 7]: clear liquid
Appearance after cooling - observation at 24 hours, except as noted ([2]; Cholesterol (35%) in OMC (32%), [S]/[L] 1.1, amide (33%), 24 hours): crystal + liquid
Appearance after cooling - observation at 24 hours, except as noted ([2]; Cholesterol (40%) in conjugated linoleic acid (30%), [S]/[L] 1.3, amide (30%), 24 hours): crystals + liquid
Appearance after cooling - observation at 24 hours, except as noted ([2]; Cholesterol (45%) in retinol proprionate (35%), [S]/[L] 1.3, amide (20%), observation at 12 hours): opaque solid
Appearance after cooling - observation at 24 hours, except as noted [2, 8]: clear liquid
Appearance after cooling - observation at 24 hours, except as noted ([2]; Climbazole (28.5%) in PPG425 (42.8%), [S]/[L] 0.7, amide (28.5%), 24 hours): clear liquid
Appearance after cooling - observation at 24 hours, except as noted [2, 9]: clear liquid
Appearance after cooling - observation at 24 hours, except as noted ([2]; Climbazole (45%) in PPG425 (35%), [S]/[L] 1.3, amide (20%), 24 hours): crystals + liquid
Appearance after cooling - observation at 24 hours, except as noted ([2]; Climbazole (50%) in Pelemol GTIS (25%), [S]/[L] 2, amide (25%), 24 hours): crystal + liquid
Appearance after cooling - observation at 24 hours, except as noted ([2]; Climbazole (55%) in OMC (22.5%), [S]/[L] 2.4, amide (22.5%), 24 hours): crystal + liquid
Appearance after cooling - observation at 24 hours, except as noted ([2]; Methyl Paraben (40%) in PPG-425 (40%), [S]/[L] 1, amide (20%), 24 hours): clear liquid
Appearance after cooling - observation at 24 hours, except as noted ([2]; Methyl Paraben (60%) in PPG-425 (25%), [S]/[L] 2, amide (15%), 24 hours): crystal + liquid
Appearance after cooling - observation at 24 hours, except as noted [2, 10]: clear liquid
Appearance after cooling - observation at 24 hours, except as noted [2, 11]: clear liquid
Appearance after cooling - observation at 24 hours, except as noted ([2]; Niacinamide (35%) in Glucam P-20 (25%), [S]/[L] 1.4, amide (40%), 24 hours): crystal + liquid
Appearance after cooling - observation at 24 hours, except as noted ([2]; Niacinamide (35%) in PPG425 (32.5%), [S]/[L] 1.1, amide (32.5%), observation at 12 hours): opaque solid
Appearance after cooling - observation at 24 hours, except as noted ([2]; Salicylic acid (15%) in conjugated linoleic acid (35%), [S]/[L] .4, amide (50%), 24 hours): clear liquid
Appearance after cooling - observation at 24 hours, except as noted ([2]; Salicylic acid (18%) in OMC (50%), [S]/[L] 0.4, amide (32%), 24 hours): clear liquid
Appearance after cooling - observation at 24 hours, except as noted ([2]; Salicylic acid (42%) in conjugated linoleic acid (33%), [S]/[L] 1.3, amide (25%), 24 hours): opaque solid
Appearance after cooling - observation at 24 hours, except as noted ([2]; Salicylic acid (60%) in OMC (25%), [S]/[L] 2.4, amide (15%), 24 hours): crystal + liquid
Appearance after cooling - observation at 24 hours, except as noted [2, 12]: clear liquid

Molecule: O=C(N1CCCC2CCCCC21)C12CC3CC(CC(C3)C1)C2 (stereo not shown) [Compound C10, Methanone, (decahydroquinolinyl)tricyclo[3.3.1.1^3,7]dec-1-yl-]
Appearance after cooling - observation at 24 hours, except as noted [2, 5]: clear liquid
Appearance after cooling - observation at 24 hours, except as noted [2, 4]: translucent gel
Appearance after cooling - observation at 24 hours, except as noted [2, 6]: Clear liquid
Appearance after cooling - observation at 24 hours, except as noted [2, 8]: clear liquid
Appearance after cooling - observation at 24 hours, except as noted [2, 9]: clear liquid
Appearance after cooling - observation at 24 hours, except as noted [2, 10]: clear liquid
Appearance after cooling - observation at 24 hours, except as noted [2, 11]: clear liquid

Molecule: NC(=O)NCCO [2-hydroxyethyl urea]
Appearance after cooling - observation at 24 hours, except as noted ([2]; 2-HEU (24.9%) in OMC (75.1%), [S]/[L] 0.3, no tricyclodecaneamide, 24 hours): crystal + liquid
Log Po/w ([1]; solid cosmetic agents, Table 1): −0.86

Molecule: O=C(O)CO [Glycolic acid]
Log Po/w ([1]; solid cosmetic agents, Table 1): −1.2

Molecule: CCCCC(CC)COC(=O)C=Cc1ccc(OC)cc1 (stereo not shown) [Octylmethoxycinnamate]
Log Po/w [1, 3]: 5.92

Molecule: CC(C)CCCCCCCCCCCCCCC(=O)OC(C)C [isopropyl isostearate]
Log Po/w [1, 3]: 9.14

Molecule: CCCCC(CC)COC(=O)C(C#N)=C(c1ccccc1)c1ccccc1 (stereo not shown) [octocrylene]
Log Po/w [1, 3]: 6.89

Molecule: CCCCCCCCCCCCCC(=O)OC(C)C [Isopropyl myristate]
Log Po/w [1, 3]: 7.25

Molecule: CC(O)CO (stereo not shown) [Propylene glycol]
Log P ([1]; liquid agent named in Table 3): P~−1.3)

Molecule: Oc1cc(Cl)ccc1Oc1ccc(Cl)cc1Cl [Triclosan]
Log Po/w ([1]; solid cosmetic agents, Table 1): 5.34

More lines, main results first:

Appearance after cooling - observation at 24 hours, except as noted [2, 4]: opaque solid
Molecule: NC(=O)c1ccccc1C(N)=O [phthalamide, reference compound]

Appearance after cooling - observation at 24 hours, except as noted ([2]; Niacinamide (10%) in Glucam P-20 (90%), [S]/[L] 0.1, no tricyclodecaneamide, 24 hours): crystal + liquid
Appearance after cooling - observation at 24 hours, except as noted ([2]; Niacinamide (14.5%) in PPG425 (85.5%), [S]/[L] 0.2, no tricyclodecaneamide, observation at 12 hours): opaque solid
Molecule: NC(=O)c1cccnc1 [Niacinamide]
Log Po/w ([1]; solid cosmetic agents, Table 1): −0.37

Appearance after cooling - observation at 24 hours, except as noted ([2]; Avobenzone (45%) in OMC (27.5%), [S]/[L] 2, straight chain comparator (27.5%), 24 hours): crystals + liquid
Molecule: CCCCCCCCCCCCCC(=O)NC1CCCC(C)C1 (stereo not shown) [tetradecanoic acid (3 methyl-cyclohexyl)-amide, reference compound]

Appearance after cooling - observation at 24 hours, except as noted [2, 4]: opaque solid
Appearance after cooling - observation at 24 hours, except as noted [2, 6]: crystal + liquid
Appearance after cooling - observation at 24 hours, except as noted [2, 7]: opaque solid
Appearance after cooling - observation at 24 hours, except as noted ([2]; Climbazole (16.6%) in OMC (50%), [S]/[L] 0.7, straight chain comparator (33.3%), 24 hours): crystal + liquid
Appearance after cooling - observation at 24 hours, except as noted [2, 12]: crystal + liquid
Molecule: CCCCCCCCCCCCCCCCCC(N)=O [octadecanamide, reference compound]

Appearance after cooling - observation at 24 hours, except as noted ([2]; Climbazole (10%) in Pelemol GTIS (90%), [S]/[L] 0.1, no tricyclodecaneamide, 24 hours): crystal + liquid
Appearance after cooling - observation at 24 hours, except as noted ([2]; Climbazole (30%) in OMC (70%), [S]/[L] 0.4, no tricyclodecaneamide, 24 hours): crystal + liquid
Appearance after cooling - observation at 24 hours, except as noted ([2]; Climbazole (40%) in PPG425 (60%), [S]/[L] 0.7, no tricyclodecaneamide, 24 hours): crystals + liquid
Molecule: CC(C)(C)C(=O)C(Oc1ccc(Cl)cc1)n1ccnc1 (stereo not shown) [Climbazole]
Log Po/w ([1]; solid cosmetic agents, Table 1): 3.49

Appearance after cooling - observation at 24 hours, except as noted [2, 5]: Translucent gel
Appearance after cooling - observation at 24 hours, except as noted ([2]; Avobenzone (28%) in OMC (40%), [S]/[L] 0.7, amide (32%), 24 hours): Clear liquid
Appearance after cooling - observation at 24 hours, except as noted ([2]; Avobenzone (45%) in OMC (27.5%), [S]/[L] 1.6, amide (27.5%), 24 hours): crystals + liquid
Appearance after cooling - observation at 24 hours, except as noted [2, 6]: Translucent gel
Appearance after cooling - observation at 24 hours, except as noted [2, 8]: clear liquid
Appearance after cooling - observation at 24 hours, except as noted [2, 9]: clear liquid
Appearance after cooling - observation at 24 hours, except as noted [2, 11]: clear liquid
Molecule: CC(C)(C)CC(C)(C)NC(=O)C12CC3CC(CC(C3)C1)C2 [Compound C21, Methanone, (1,1-dimethyl-3,3-dimethylbutylaminyl) tricyclo[3.3.1.1^3,7]dec-1-yl-]

Appearance after cooling - observation at 24 hours, except as noted ([2]; Cholesterol (16%) in OMC (84%), [S]/[L] 0.2, no tricyclodecaneamide, 24 hours): crystal + liquid
Appearance after cooling - observation at 24 hours, except as noted ([2]; Cholesterol (20%) in conjugated linoleic acid (80%), [S]/[L] 0.2, no tricyclodecaneamide, 24 hours): crystals + liquid
Appearance after cooling - observation at 24 hours, except as noted ([2]; Cholesterol (20%) in retinol proprionate (80%), [S]/[L] 0.3, no tricyclodecaneamide, observation at 12 hours): opaque solid
Molecule: CC(C)CCC[C@@H](C)[C@H]1CC[C@H]2[C@@H]3CC=C4C[C@@H](O)CC[C@]4(C)[C@H]3CC[C@]12C [cholesterol]
Log Po/w ([1]; solid cosmetic agents, Table 1): 9.62
